Data from ChEMBL document CHEMBL1201862, “PubChem BioAssay data set” (2004).
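Compound exposure: 48 hours, 5 concentrations, 96-well plates. GI50: concentration for 50% inhibition of growth.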 The source made the active and inactive calls. Rule as the data show it: active = GI50 up to about 1.1 µM and inactive = higher.

Experiments:
Experiment in all cases: NCI tumour cell line growth inhibition, 48 h
[1] = tested on: SF-295
[2] = tested on: Hs-578T
[3] = tested on: M14
[4] = tested on: COLO 205
[5] = tested on: MOLT-4
[6] = tested on: Malme-3M
[7] = tested on: PC-3
[8] = tested on: MCF7
[9] = tested on: SNB-75
[10] = tested on: SN12C
[11] = tested on: SK-OV-3
[12] = tested on: IGROV-1
[13] = tested on: SR
[14] = tested on: SF-539
[15] = tested on: SK-MEL-2
[16] = tested on: U-251
[17] = tested on: CCRF-CEM
[18] = tested on: UACC-257

Measured: GI50

O=S(=O)(Nc1ccc2ccc3cccc4ccc1c2c34)c1ccccc1
inactive: [1] 10.4 µM | [2] 28.1 µM | [3] > 100 µM | [4] 29.5 µM | [5] 8.77 µM | [6] 38.9 µM | [7] 14.3 µM | [8] 43.4 µM | [9] 55.7 µM | [10] 15 µM | [11] 58.3 µM | [12] 18.7 µM | [13] 2.67 µM | [14] 25.6 µM | [15] 70.5 µM | [16] 50.4 µM | [17] 14.1 µM | [18] 58.7 µM

CSC1=C(SC)SC(=C2SC3=C(SC(=C4SCCS4)S3)S2)S1
inactive: [1] > 100 µM | [2] > 100 µM | [3] > 100 µM | [4] > 100 µM | [5] > 100 µM | [6] > 100 µM | [7] > 100 µM | [8] > 100 µM | [9] > 100 µM | [10] > 100 µM | [11] > 100 µM | [12] > 100 µM | [13] > 100 µM | [14] > 100 µM | [15] > 100 µM | [16] > 100 µM | [17] > 100 µM | [18] > 100 µM

COc1ccc(NCC(=O)Nn2c(C)nc3ccc(S(=O)(=O)Nc4ccc(OC)cc4)cc3c2=O)cc1
inactive: [1] > 100 µM | [2] > 100 µM | [3] > 100 µM | [4] > 100 µM | [5] > 100 µM | [6] > 100 µM | [7] > 100 µM | [8] > 100 µM | [9] > 100 µM | [10] > 100 µM | [11] > 100 µM | [12] 69.7 µM | [13] > 100 µM | [14] > 100 µM | [15] > 100 µM | [16] > 100 µM | [17] > 100 µM | [18] > 100 µM

Cc1ccc(/C=C2\N=C(N3CCCC(CO)C3)NC2=O)cc1 (configuration not stated)
inactive: [1] > 100 µM | [2] > 100 µM | [3] > 100 µM | [4] > 100 µM | [5] > 100 µM | [6] > 100 µM | [7] > 100 µM | [8] > 100 µM | [9] > 100 µM | [10] > 100 µM | [11] > 100 µM | [12] > 100 µM | [13] > 100 µM | [14] > 100 µM | [15] > 100 µM | [16] > 100 µM | [17] > 100 µM | [18] > 100 µM
